Data taken from publication PMC5760531, “Action Potential Recording and Pro-arrhythmia Risk Analysis in Human Ventricular Trabeculae” (Frontiers in Physiology, 2018).

Legend:
[1] = test system: human ventricular trabeculae; assay: Action potential recording and pro-arrhythmic score analysis in human ventricular trabeculae (hVT);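 also: sharp microelectrode action potential recordings at 37°C in Tyrode-perfused trabeculae, 4 cumulative concentrations each applied 31 min, values averaged over last 30 APs, vehicle 0.1% DMSO as control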
[2] = human free (unbound) effective therapeutic plasma concentration used to calculate multiples; cited from earlier work
[3] = 1Hz, 1.6-FOLD free ETPC (0.006µM)
[4] = 1Hz, 17-FOLD free ETPC (0.006µM)
[5] = 1Hz, 167-FOLD free ETPC (0.006µM)
[6] = 1Hz, 1667-FOLD free ETPC (0.006µM)
[7] = 2Hz, 1.6-FOLD free ETPC (0.006µM)
[8] = 2Hz, 17-FOLD free ETPC (0.006µM)
[9] = 2Hz, 167-FOLD free ETPC (0.006µM)
[10] = 2Hz, 1667-FOLD free ETPC (0.006µM)

In the case of `COc1cc2nc(N(C)CCCNC(=O)C3CCCO3)nc(N)c2cc1OC` (stereo not shown) [ALFUZOSIN, Alfuzosin], the AMAX [1, 3] is reported as 110, the “AMAX percentage change compared to vehicle control” value (“AMAX percentage change” below) [1, 3] is reported as 2% and the APD30 [1, 3] is reported as 163. The “APD30 percentage change compared to vehicle control” value (“APD30 percentage change” for short) [1, 3] was 4%, the APD50 [1, 3] was 214 and the “APD50 percentage change compared to vehicle control” value (shortened to “APD50 percentage change”) [1, 3] was 4%. For the same molecule, the APD90 [1, 3] was 287, the “APD90 percentage change compared to vehicle control” value (“APD90 percentage change” below) [1, 3] was 3% and the Alternans [1, 3] was 0.33. The “Alternans percentage change compared to vehicle control” value (from here on “Alternans percentage change”) [1, 3] was -14%, the “Beat Escape” value [1, 3] was 0 and the “Beat Escape percentage change compared to vehicle control” value (shortened to “Beat Escape percentage change”) [1, 3] was 0%. The EADs [1, 3] was 0, the “EADs percentage change compared to vehicle control” value (from here on “EADs percentage change”) [1, 3] was 0% and the ERP [1, 3] was 0.42. For the same molecule, the “ERP percentage change compared to vehicle control” value (from here on “ERP percentage change”) [1, 3] was 0%, the “Max Dispersion” value [1, 3] was 2.40 and the “Max Dispersion percentage change compared to vehicle control” value (“Max Dispersion percentage change” for short) [1, 3] was 28%. The RMP [1, 3] was -88, the “RMP percentage change compared to vehicle control” value (“RMP percentage change” below) [1, 3] was 3% and the “Refractoriness Escape” value [1, 3] was 0. For the same molecule, the “Refractoriness Escape percentage change compared to vehicle control” value (“Refractoriness Escape percentage change” below) [1, 3] was 0%, the STV [1, 3] was 0.30 and the “STV percentage change compared to vehicle control” value (from here on “STV percentage change”) [1, 3] was 9%. For the same molecule, the Triangulation [1, 3] was 123, the “Triangulation percentage change compared to vehicle control” value (“Triangulation percentage change” for short) [1, 3] was -1% and the AMAX [1, 4] was 110. The “AMAX percentage change” value [1, 4] was 1%, the APD30 [1, 4] was 159 and the “APD30 percentage change” value [1, 4] was 2%. The APD50 [1, 4] was 209, the “APD50 percentage change” value [1, 4] was 2% and the APD90 [1, 4] was 284. For the same molecule, the “APD90 percentage change” value [1, 4] was 1%, the Alternans [1, 4] was 0.34 and the “Alternans percentage change” value [1, 4] was -13%. For the same molecule, the “Beat Escape” value [1, 4] was 0, the “Beat Escape percentage change” value [1, 4] was 0% and the EADs [1, 4] was 0. For the same molecule, the “EADs percentage change” value [1, 4] was 0%, the ERP [1, 4] was 0.44 and the “ERP percentage change” value [1, 4] was 4%. For the same molecule, the “Max Dispersion” value [1, 4] was 2.18, the “Max Dispersion percentage change” value [1, 4] was 16% and the RMP [1, 4] was -88. The “RMP percentage change” value [1, 4] was 3%, the “Refractoriness Escape” value [1, 4] was 0 and the “Refractoriness Escape percentage change” value [1, 4] was 0%. For the same molecule, the STV [1, 4] was 0.26, the “STV percentage change” value [1, 4] was -6% and the Triangulation [1, 4] was 126. For the same molecule, the “Triangulation percentage change” value [1, 4] was 1%, the AMAX [1, 5] was 110 and the “AMAX percentage change” value [1, 5] was 2%. The APD30 [1, 5] was 161, the “APD30 percentage change” value [1, 5] was 3% and the APD50 [1, 5] was 213. For the same molecule, the “APD50 percentage change” value [1, 5] was 4%, the APD90 [1, 5] was 291 and the “APD90 percentage change” value [1, 5] was 4%. For the same molecule, the Alternans [1, 5] was 0.45, the “Alternans percentage change” value [1, 5] was 16% and the “Beat Escape” value [1, 5] was 0. The “Beat Escape percentage change” value [1, 5] was 0%, the EADs [1, 5] was 0 and the “EADs percentage change” value [1, 5] was 0%. For the same molecule, the ERP [1, 5] was 0.44, the “ERP percentage change” value [1, 5] was 4% and the “Max Dispersion” value [1, 5] was 2.43. For the same molecule, the “Max Dispersion percentage change” value [1, 5] was 29%, the RMP [1, 5] was -89 and the “RMP percentage change” value [1, 5] was 4%. The “Refractoriness Escape” value [1, 5] was 0, the “Refractoriness Escape percentage change” value [1, 5] was 0% and the STV [1, 5] was 0.29. The “STV percentage change” value [1, 5] was 7%, the Triangulation [1, 5] was 130 and the “Triangulation percentage change” value [1, 5] was 5%. For the same molecule, the AMAX [1, 6] was 109, the “AMAX percentage change” value [1, 6] was 1% and the APD30 [1, 6] was 162. For the same molecule, the “APD30 percentage change” value [1, 6] was 4%, the APD50 [1, 6] was 222 and the “APD50 percentage change” value [1, 6] was 9%. The APD90 [1, 6] was 319, the “APD90 percentage change” value [1, 6] was 14% and the Alternans [1, 6] was 0.72. The “Alternans percentage change” value [1, 6] was 86%, the “Beat Escape” value [1, 6] was 0 and the “Beat Escape percentage change” value [1, 6] was 0%. The EADs [1, 6] was 0, the “EADs percentage change” value [1, 6] was 0% and the ERP [1, 6] was 0.47. For the same molecule, the “ERP percentage change” value [1, 6] was 12%, the “Max Dispersion” value [1, 6] was 3.05 and the “Max Dispersion percentage change” value [1, 6] was 63%. The RMP [1, 6] was -88, the “RMP percentage change” value [1, 6] was 4% and the “Refractoriness Escape” value [1, 6] was 0. The “Refractoriness Escape percentage change” value [1, 6] was 0%, the STV [1, 6] was 0.46 and the “STV percentage change” value [1, 6] was 75%. For the same molecule, the Triangulation [1, 6] was 158, the “Triangulation percentage change” value [1, 6] was 28% and the AMAX [1, 7] was 109. For the same molecule, the “AMAX percentage change” value [1, 7] was 1%, the APD30 [1, 7] was 120 and the “APD30 percentage change” value [1, 7] was 2%. The APD50 [1, 7] was 163, the “APD50 percentage change” value [1, 7] was 3% and the APD90 [1, 7] was 234. For the same molecule, the “APD90 percentage change” value [1, 7] was 2%, the Alternans [1, 7] was 0.92 and the “Alternans percentage change” value [1, 7] was 6%. For the same molecule, the “Beat Escape” value [1, 7] was 0, the “Beat Escape percentage change” value [1, 7] was 0% and the EADs [1, 7] was 0. For the same molecule, the “EADs percentage change” value [1, 7] was 0%, the ERP [1, 7] was 0.45 and the “ERP percentage change” value [1, 7] was 1%. For the same molecule, the “Max Dispersion” value [1, 7] was 3.95, the “Max Dispersion percentage change” value [1, 7] was 12% and the RMP [1, 7] was -87. The “RMP percentage change” value [1, 7] was 2%, the “Refractoriness Escape” value [1, 7] was 0 and the “Refractoriness Escape percentage change” value [1, 7] was 0%. For the same molecule, the STV [1, 7] was 0.64, the Triangulation [1, 7] was 115 and the “Triangulation percentage change” value [1, 7] was 1%. The AMAX [1, 8] was 110, the “AMAX percentage change” value [1, 8] was 2% and the APD30 [1, 8] was 116. For the same molecule, the “APD30 percentage change” value [1, 8] was -1%, the APD50 [1, 8] was 160 and the “APD50 percentage change” value [1, 8] was 1%. The APD90 [1, 8] was 233, the “APD90 percentage change” value [1, 8] was 1% and the Alternans [1, 8] was 0.99. For the same molecule, the “Alternans percentage change” value [1, 8] was 14%, the “Beat Escape” value [1, 8] was 0 and the “Beat Escape percentage change” value [1, 8] was 0%. The EADs [1, 8] was 0, the “EADs percentage change” value [1, 8] was 0% and the ERP [1, 8] was 0.47. For the same molecule, the “ERP percentage change” value [1, 8] was 4%, the “Max Dispersion” value [1, 8] was 3.93 and the “Max Dispersion percentage change” value [1, 8] was 11%. For the same molecule, the RMP [1, 8] was -88, the “RMP percentage change” value [1, 8] was 4% and the “Refractoriness Escape” value [1, 8] was 0. For the same molecule, the “Refractoriness Escape percentage change” value [1, 8] was 0%, the STV [1, 8] was 0.66 and the Triangulation [1, 8] was 118. For the same molecule, the “Triangulation percentage change” value [1, 8] was 3%, the AMAX [1, 9] was 110 and the “AMAX percentage change” value [1, 9] was 2%. The APD30 [1, 9] was 115, the “APD30 percentage change” value [1, 9] was -1% and the APD50 [1, 9] was 161. The “APD50 percentage change” value [1, 9] was 2%, the APD90 [1, 9] was 238 and the “APD90 percentage change” value [1, 9] was 3%. For the same molecule, the Alternans [1, 9] was 0.83, the “Alternans percentage change” value [1, 9] was -4% and the “Beat Escape” value [1, 9] was 0. For the same molecule, the “Beat Escape percentage change” value [1, 9] was 0%, the EADs [1, 9] was 0 and the “EADs percentage change” value [1, 9] was 0%. For the same molecule, the ERP [1, 9] was 0.48, the “ERP percentage change” value [1, 9] was 7% and the “Max Dispersion” value [1, 9] was 2.88. The “Max Dispersion percentage change” value [1, 9] was -18%, the RMP [1, 9] was -88 and the “RMP percentage change” value [1, 9] was 3%. For the same molecule, the “Refractoriness Escape” value [1, 9] was 0, the “Refractoriness Escape percentage change” value [1, 9] was 0% and the STV [1, 9] was 0.63. For the same molecule, the Triangulation [1, 9] was 123, the “Triangulation percentage change” value [1, 9] was 8% and the AMAX [1, 10] was 108. The “AMAX percentage change” value [1, 10] was 0%, the APD30 [1, 10] was 115 and the “APD30 percentage change” value [1, 10] was -1%. For the same molecule, the APD50 [1, 10] was 165, the “APD50 percentage change” value [1, 10] was 5% and the APD90 [1, 10] was 258. For the same molecule, the “APD90 percentage change” value [1, 10] was 12%, the Alternans [1, 10] was 0.78 and the “Alternans percentage change” value [1, 10] was -10%. For the same molecule, the “Beat Escape” value [1, 10] was 0, the “Beat Escape percentage change” value [1, 10] was 0% and the EADs [1, 10] was 0. The “EADs percentage change” value [1, 10] was 0%, the ERP [1, 10] was 0.50 and the “ERP percentage change” value [1, 10] was 11%. For the same molecule, the “Max Dispersion” value [1, 10] was 2.72, the “Max Dispersion percentage change” value [1, 10] was -23% and the RMP [1, 10] was -87. For the same molecule, the “RMP percentage change” value [1, 10] was 2%, the “Refractoriness Escape” value [1, 10] was 0 and the “Refractoriness Escape percentage change” value [1, 10] was 0%. The STV [1, 10] was 0.55, the Triangulation [1, 10] was 142 and the “Triangulation percentage change” value [1, 10] was 26%. The “Free ETPC” value [2] was 0.006 µM.
